Assay results: patent US20060194756A1 (priority 2004, published 2006)
Where two headings read alike, the source gives them in different places. One block for each molecule: values may come before it.

Tests used:
[1] = tested on: HIF-1α protein expression in U87MG glioblastoma cells; assay: HIF-1α protein expression in U87MG glioblastoma cells under hypoxia; format: cell-based, human; conditions: Cl-IB-MECA 100 nM, 4 hours of hypoxia
Method: (§1) Cell culture and hypoxia treatment: Cells were maintained in DMEM (A375), EMEM (NCTC 2544) or RPMI 1640 (U87MG, U2OS) medium containing 10% fetal calf serum, penicillin (100 U/ml), streptomycin (100 ug/ml), and L-glutamine (2 mM) at 37° C. in 5% CO2/95% air. Cells were passaged two or three times weekly at a ratio between 1:5 and 1:10. Hypoxic exposure was in BBL™ GasPak pouch™ System (Becton Dickinson) that reduce oxygen concentration of less than 2% within 2 hours of incubation at 35° C.
(§2) Cells were harvested and washed with ice-cold PBS containing 1 mM sodium orthovanadate, AEBSF 104 mM, aprotinin 0.08 mM, leupeptin 2 mM, bestatin 4 mM, pepstatin A 1.5 mM, E-64 1.4 mM. Cells were then lysed in Triton lysis buffer. The protein concentration was determined using BCA protein assay kit (Pierce). Equivalent amounts of protein (35 ug) were subjected to electrophoresis on 7.5% sodium dodecyl sulfate-acrylamide gel. The gel was then electroblotted onto a nitrocellulose membrane. […] Aliquots of total protein sample (50 μg) were analyzed using antibodies specific for phosphorylated (Thr183/Tyr185) or total p44/p42 MAPK (1:5000 dilution), phosphorylated (Thr180/Tyr182) or total p38 MAPK (1:1000 dilution) and for A3 receptor (1 μg/ml dilution). […]

[2] = tested on: p44/p42 MAPK phosphorylation in A375 cells; assay: p44/p42 MAPK phosphorylation in hypoxic A375 cells (immunoblot); format: cell-based, human; conditions: 4 hours in hypoxia
Method: (§3) Cells were harvested and washed with ice-cold PBS containing 1 mM sodium orthovanadate, AEBSF 104 mM, aprotinin 0.08 mM, leupeptin 2 mM, bestatin 4 mM, pepstatin A 1.5 mM, E-64 1.4 mM. Cells were then lysed in Triton lysis buffer. The protein concentration was determined using BCA protein assay kit (Pierce). Equivalent amounts of protein (35 ug) were subjected to electrophoresis on 7.5% sodium dodecyl sulfate-acrylamide gel. The gel was then electroblotted onto a nitrocellulose membrane. Membranes were blocked with 5% nonfat dry milk in PBS containing 0.1% Tween-20 and incubated with antibodies against HIF-1α (1:250 dilution) and HIF-1β (1:1000 dilution) in 5% nonfat dry milk in PBS/0.1% Tween-20 overnight at 4° C. Aliquots of total protein sample (50 μg) were analyzed using antibodies specific for phosphorylated (Thr183/Tyr185) or total p44/p42 MAPK (1:5000 dilution), phosphorylated (Thr180/Tyr182) or total p38 MAPK (1:1000 dilution) and for A3 receptor (1 μg/ml dilution). Filters were washed and incubated for 1 hour at room temperature with peroxidase-conjugated secondary antibodies against mouse and rabbit IgG (1:2000 dilution). […]
(§4) Densitometry analysis: The intensity of each band in immunoblot assay was quantified using molecular analyst/PC densitometry software (Bio-Rad). […] The data were presented as the mean±S.E., and analyzed by the Student's test.

[3] = tested on: HIF-1α protein expression in NCTC 2544 keratinocytes; assay: HIF-1α protein expression in NCTC 2544 keratinocytes under hypoxia; format: cell-based, human; conditions: NCTC 2544, Cl-IB-MECA 100 nM, 4 hours of hypoxia
Method: as §1, §2

[4] = tested on: HIF-1α protein expression in U2OS osteosarcoma cells; assay: HIF-1α protein expression in U2OS osteosarcoma cells under hypoxia; format: cell-based, human; conditions: Cl-IB-MECA 100 nM, 4 hours of hypoxia
Method: as §1, §2

[5] = tested on: HIF-1β protein expression in A375 melanoma cells; assay: HIF-1β protein expression in A375 cells (immunoblot); format: cell-based, human; conditions: hypoxia (Cl-IB-MECA: normoxia and hypoxia)
Method: as §1
(§5) Cells were harvested and washed with ice-cold PBS containing 1 mM sodium orthovanadate, AEBSF 104 mM, aprotinin 0.08 mM, leupeptin 2 mM, bestatin 4 mM, pepstatin A 1.5 mM, E-64 1.4 mM. Cells were then lysed in Triton lysis buffer. The protein concentration was determined using BCA protein assay kit (Pierce). Equivalent amounts of protein (35 ug) were subjected to electrophoresis on 7.5% sodium dodecyl sulfate-acrylamide gel. The gel was then electroblotted onto a nitrocellulose membrane. Membranes were blocked with 5% nonfat dry milk in PBS containing 0.1% Tween-20 and incubated with antibodies against HIF-1α (1:250 dilution) and HIF-1β (1:1000 dilution) in 5% nonfat dry milk in PBS/0.1% Tween-20 overnight at 4° C. Aliquots of total protein sample (50 μg) were analyzed using antibodies specific for phosphorylated (Thr183/Tyr185) or total p44/p42 MAPK (1:5000 dilution), phosphorylated (Thr180/Tyr182) or total p38 MAPK (1:1000 dilution) and for A3 receptor (1 μg/ml dilution). Filters were washed and incubated for 1 hour at room temperature with peroxidase-conjugated secondary antibodies against mouse and rabbit IgG (1:2000 dilution). […] The membranes were then stripped and reprobed with tubulin (1:250) to ensure equal protein loading.

[6] = tested on: p38 MAPK phosphorylation in A375 cells; assay: p38 MAPK phosphorylation in hypoxic A375 cells (immunoblot); format: cell-based, human; conditions: 4 hours in hypoxia, various concentrations
Method: as §3, §4

[7] = tested on: HIF-1α protein degradation in A375 cells; assay: HIF-1α degradation after return of hypoxic A375 cells to normoxia; format: cell-based, human; conditions: Cl-IB-MECA 100 nM, 4 hours hypoxia then normoxia 0-15 minutes
Method: as §3, §4

[8] = tested on: HIF-1α protein expression in A375 melanoma cells; assay: HIF-1α protein accumulation in A375 cells (immunoblot, densitometry); format: cell-based, human; conditions: for prevention of adenosine-induced HIF-1α protein expression: adenosine 100 μM, antagonist 100 nM, hypoxia 4 hours; for abrogation of the effect of Cl-IB-MECA in HIF-1α modulation: antagonist 10 and 100 nM, Cl-IB-MECA 10 and 100 nM; for inhibition of Cl-IB-MECA-induced increase of HIF-1α protein expression: U0126 10 and 30 μM, SB202190 1 and 10 μM
Method: as §1
as §5, with “Equivalent amounts of protein (35 ug) were subjected to electrophoresis on 7.5% sodium dodecyl sulfate-acrylamide gel.” left out
U0126 was used at 10 and 30 uM as inhibitor of MEK-1 and MEK-2 to prevent p44 and p42 MAPK activation. SB202190 was used at 1 and 10 μM as inhibitor of p38 MAPK.
as §4

[9] = intact anesthetized rabbits studied in situ; cited from earlier work
[10] = rat 4 vessel occlusion model; cited from earlier work
[11] = transient middle cerebral artery occlusion focal ischemia; cited from earlier work
[12] = Cl-IB-MECA 100 nM, 4 hours in hypoxia

SMILES: CNC(=O)[C@H]1O[C@@H](n2cnc3c(NCc4cccc(I)c4)nc(Cl)nc32)[C@H](O)[C@@H]1O [Cl-IB-MECA]
HIF-1α protein expression [1]: significant increase
concentration giving maximum induction of p44/p42 phosphorylation [2]: 100 nM
phosphorylation of p44 and p42 ([2]; nanomolar concentrations): induced
HIF-1α protein expression [3]: significant increase
HIF-1α protein expression [4]: significant increase
modulation of HIF-1β protein expression [5]: did not modify
phosphorylation of p38 MAPK [6]: increased the phosphorylation of p38 MAPK in a dose-dependent manner
HIF-1α degradation rate after removal of hypoxic conditions [7]: unchanged degradation rate
HIF-1α protein levels in CoCl2-treated cells ([8]; 100 μM CoCl2, normoxia, 4 hours): able to increase the levels of HIF-1α protein
HIF-1α levels in cells exposed to cycloheximide ([8]; 100 μM CoCl2, normoxia, Cl-IB-MECA 100 nM, CHX 1 μM, within 6 hours): failed to increase
HIF-1α protein expression in the presence of actinomycin D ([8]; Act-D 10 μg/ml, Cl-IB-MECA 100 nM, 4 hours in hypoxia): able to increase HIF-1α protein expression also in the presence of Act-D
concentration inducing maximum expression of HIF-1α protein ([8]; hypoxia, 4 hours): 100 nM
time of maximum peak HIF-1α levels after addition ([8]; hypoxia, Cl-IB-MECA 100 nM): 4 h
HIF-1α protein expression under hypoxic conditions, time course ([8]; hypoxia, Cl-IB-MECA 100 nM, 2-24 hours): increased in a time-dependent manner
HIF-1α protein accumulation in normoxia ([8]; normoxia, Cl-IB-MECA 100 nM): did not promote HIF-1α protein accumulation

SMILES: CCCn1c(=O)c2[nH]c(-c3cc(OCC(=O)Nc4ccc5c(c4)OCO5)nn3C)nc2n(CCC)c1=O [MRE 2029F20]
prevention of adenosine-induced HIF-1α protein expression [8]: not able to prevent

SMILES: Cn1cc2c(nc(NC(=O)Nc3ccncc3)n3nc(-c4ccco4)nc23)n1 [MRE 3005F20]
modulation of HIF-1β protein expression [5]: neither MRE 3008F20 nor MRE 3005F20 had any effect
abrogation of the effect of Cl-IB-MECA in HIF-1α modulation ([8]; hypoxia): able to abrogate

IC50 ([8]; read-out: IC50 for inhibition of HIF-1α protein increase induced by 10 nM Cl-IB-MECA, hypoxia 4 hours, MRE 3008F20 0.3-30 nM): 0.9 ± 0.08 nM
SMILES: CCCn1cc2c(nc(NC(=O)Nc3ccc(OC)cc3)n3nc(-c4ccco4)nc23)n1 [MRE 3008F20]
modulation of HIF-1β protein expression [5]: neither MRE 3008F20 nor MRE 3005F20 had any effect
prevention of adenosine-induced HIF-1α protein expression [8]: abrogated
abrogation of the effect of Cl-IB-MECA in HIF-1α modulation ([8]; hypoxia): able to abrogate

SMILES: C[C@H](Cc1ccccc1)Nc1ncnc2c1ncn2[C@@H]1O[C@H](CO)[C@@H](O)[C@H]1O [PIA, N^6-1-(phenyl-2R-isopropyl) adenosine]
cardioprotection [9]: pharmacologically induce cardioprotection

SMILES: Oc1ccc(-c2nc(-c3ccncc3)c(-c3ccc(F)cc3)[nH]2)cc1 [SB202190]
inhibition of Cl-IB-MECA-induced increase of HIF-1α protein expression [8, 12]: able to inhibit

SMILES: Nc1nc2c(cnn2CCc2ccccc2)c2nc(-c3ccco3)nn12 [SCH 58261, 5-amino-7-(2-phenylethyl)-2-(2-furyl)-pyrazolo[4,3-e]-1,2,4-triazolo[1,5-c]pyrimidine]
prevention of adenosine-induced HIF-1α protein expression [8]: not able to prevent

SMILES: CSCC[C@@H]1NC(=O)[C@H](CC(C)C)NC(=O)[C@H](CCCNC(=N)N)NC(=O)[C@H](CO)NC(=O)[C@@H]2CSSC[C@@H]3NC(=O)[C@H](CO)NC(=O)CNC(=O)[C@H]([C@@H](C)O)NC(=O)[C@H](CSSC[C@H](N)C(=O)N[C@@H](CCCCN)C(=O)NCC(=O)N[C@@H](CCCCN)C(=O)NCC(=O)N[C@@H](C)C(=O)N[C@@H](CCCCN)C(=O)N2)NC(=O)[C@H](CSSC[C@@H](C(N)=O)NC(=O)[C@H](CCCCN)NC(=O)CNC(=O)[C@H](CO)NC(=O)[C@H](CCCNC(=N)N)NC3=O)NC(=O)[C@H](CC(=O)O)NC(=O)[C@H](Cc2ccc(O)cc2)NC1=O [SNX-111]
neuroprotection [10]: neuroprotective
neuroprotection [11]: neuroprotective

SMILES: N#CC(=C(/N)Sc1ccccc1N)/C(C#N)=C(\N)Sc1ccccc1N [U0126]
inhibition of Cl-IB-MECA-induced increase of HIF-1α protein expression [8, 12]: able to inhibit

SMILES: Nc1ncnc2c1ncn2[C@@H]1O[C@H](CO)[C@@H](O)[C@H]1O [adenosine]
modulation of HIF-1β protein expression [5]: did not observe any modulation
